Measurements from ChEMBL document CHEMBL1157539, “Thousands of chemical starting points for antimalarial lead identification” (Nature, 2010).

test system: Plasmodium falciparum; assay: GSK_TCMDC: Inhibition of Plasmodium falciparum 3D7 in whole erythrocytes, using parasite LDH activity as an index of growth.; type: functional, organism-based; conditions: Plasmodium falciparum, 3D7

Point of comparison: CC(Cc1ccc(NC(=O)c2ccc(CNCc3ccccc3)cc2)cc1)N(CCc1cccc(Cl)c1)C(=O)OC(C)(C)C (stereo not drawn), XC50 974 nM. Against it:
- Oc1cc(NC[C@@H]2CCC[C@@H]2NCc2ccc(Cl)c(Cl)c2)nc2ccccc12 — 1.6-fold lower, 602 nM
- CCC(CC)CN1C(=O)C(c2ccccc2)(c2ccccc2)N=C1N — within 1.5-fold, 970 nM
- O=C(/C=C/c1ccc(Cl)c(Cl)c1)NCCCCCN1CCC(c2c[nH]c3c(-c4ccccc4)cccc23)CC1 — 4-fold lower, 246 nM
- CN(C)CCCN(C)C(=O)c1cc2cc(-c3ccccc3)ccc2n1S(=O)(=O)c1ccccc1 — 2.1-fold lower, 462 nM
- CCNc1cc(CCCC(=O)OCC)nc(Nc2ccc(C)cc2)n1 — within 1.5-fold, 771 nM
- Fc1ccc2[nH]c(-c3cccc(-c4cccc(CN5CCN(c6ccncc6)CC5)c4)c3)nc2c1 — 6.7-fold lower, 145 nM
- O=C(Nc1cccc(N2CCC(NCCCc3ccncc3)CC2)c1)c1cccc(C(F)(F)F)c1 — within 1.5-fold, 853 nM
- Fc1ccc2[nH]c(-c3ccc(-c4ccc(CNCCN5CCNCC5)cc4)cc3)nc2c1 — within 1.5-fold, 850 nM
- COc1cc(Cc2cnc(N)nc2N)cc(OCCCCC2NC(=O)NC2=O)c1OC (stereo not drawn) — within 1.5-fold, 714 nM
- Clc1cc(Cl)cc(Nc2ccnc(Nc3cc(Cl)cc(Cl)c3)n2)c1 — within 1.5-fold, 672 nM
- COc1ccc(-c2cccc(NC(=O)c3ccc(F)cc3)c2)cc1CNC(C)C — within 1.5-fold, 1380 nM
- CCC(C)(C)c1ccc(OCC(O)CN2CCCCC2)c(C(C)(C)CC)c1 (stereo not drawn) — within 1.5-fold, 1300 nM
- Nc1cccc(C=CC(=O)N=c2cc[nH]c3ccccc23)c1 — within 1.5-fold, 1060 nM
- CCc1cn2c3c(cc(C(=O)N[C@@H](Cc4cc(F)cc(F)c4)[C@H](O)CNC4CC4)cc13)N(C)S(=O)(=O)CC2 — 8.2-fold lower, 119 nM
- Cc1cccc2nc(-c3ccc(-c4cccc(CN5CCC(C(N)=O)CC5)c4)s3)[nH]c12 — within 1.5-fold, 1260 nM
- CCc1ccc(C2CCN(CCCCNC(=O)c3ccc(NC(=O)c4ccc(Cl)cc4)cc3)CC2)c(OC(C)=O)c1 — 6.7-fold lower, 145 nM
- CN1CCN(c2nsc3ccc(-c4ccc(OCCN5CCCC5)cc4)cc23)CC1 — within 1.5-fold, 826 nM
- O=C(O[C@@H]1CN[C@H](C#Cc2cc3ncnc(Nc4ccc5c(cnn5Cc5cccc(F)c5)c4)c3s2)C1)N1CCCC1 — within 1.5-fold, 757 nM
- N=C(N)CCN(Cc1ccc(Cl)cc1)c1ccc(Cl)cc1 — within 1.5-fold, 1060 nM
- COc1ccc(-c2ccc(Nc3cccc(S(=O)(=O)CCN4CCC(CCN(C)C)CC4)c3)nc2)cn1 — within 1.5-fold, 1120 nM
- O=C(NC1CCCc2ccccc21)C1CCCN(C(=O)c2ccc(O)c(-c3ccc(Cl)c(Cl)c3)c2)C1 (stereo not drawn) — within 1.5-fold, 1140 nM
- CC(c1cccc(S(=O)(=O)NCc2cccc(C(F)(F)F)c2)c1)N1CCC(N2CCCCC2)CC1 (stereo not drawn) — within 1.5-fold, 695 nM
- CC1(C)NC(N)=NC(=N)N1OCCCc1cccc(C(F)(F)F)c1 — 300-fold lower, 3.2 nM
- CCCN1CCc2c(sc3nc(SCC(=O)Nc4ccc(C)cc4)n(-c4ccc(C)cc4)c(=O)c23)C1 — within 1.5-fold, 869 nM
- FC(F)(F)c1ccc2[nH]c(-c3ccc(-c4cccc(CNCC5CCCO5)c4)s3)nc2c1 (stereo not drawn) — 2.7-fold lower, 367 nM
- Cc1ccc(C(=O)NC2CCN(CCNC(=O)Nc3cc(C)nc4ccccc34)CC2)cc1 — 2-fold lower, 490 nM
- COc1ccc2c(=NN=Cc3ccc(OC)c4ccccc34)cc(C)[nH]c2c1 — 1.6-fold lower, 599 nM
- COc1ccc(C(=O)N[C@@H](CC(C)C)C(=O)NC2CC[C@@H](C)N(C(=O)Nc3ccc(Cl)cc3)CC2=O)cc1OCCN1CCOCC1 (stereo partly drawn) — 6.4-fold lower, 152 nM
- Cc1noc(-c2ccccc2)c1NC(=O)NC1CCN(CCCCCNC(=O)/C=C/c2ccc(Cl)c(Cl)c2)CC1 — within 1.5-fold, 985 nM
- O=C1NC(=O)C(c2cccc(NC(=O)c3ccncc3)c2)=C1c1ccccc1 — within 1.5-fold, 735 nM
- O=C(Nc1cccc(-c2ccc(-c3nc4cc(C(F)(F)F)ccc4[nH]3)cc2)c1)c1ccoc1 — within 1.5-fold, 714 nM
- N#Cc1ccccc1N1CCN(C2CCC(NC(=O)c3n[nH]c4cc(C(F)(F)F)ccc34)CC2)CC1 (stereo not drawn) — within 1.5-fold, 1370 nM
- C#CCNC(=O)c1ccc(-c2ccnc(Nc3cccc(CCCN4CCOCC4)c3)n2)s1 — within 1.5-fold, 1000 nM
- Cc1cc(Nc2cccc(C(F)(F)F)c2)nc2ccc(NC(=O)c3ccc(=O)[nH]c3)cc12 — 2-fold lower, 487 nM
- O=S(=O)(c1cccc(F)c1)c1ccc(Nc2ncnc3cc(Br)sc23)cc1Cl — within 1.5-fold, 1030 nM
- CC(C)[C@H](NC(=O)c1c(F)cccc1F)C(=O)Nc1ccc(Cc2nc3ccccc3s2)cc1 — 2-fold lower, 498 nM
- CCCC(C(CC1CCC(C)CC1)C(=O)NC(CCCNc1ncccn1)C(=O)Nc1nccs1)N(O)C=O (stereo not drawn) — 5.2-fold lower, 187 nM
- COc1ccc(CN(C2CC2)C(C)C(=O)c2[nH]c(C)c(C(C)=O)c2C)cc1 (stereo not drawn) — 1.6-fold higher, 1590 nM
- O=C(Nc1ccc(Cl)cc1Cl)N[C@H]1CCN(CCCCCNC(=O)C2CC2c2ccc(Cl)c(Cl)c2)C1 (stereo partly drawn) — within 1.5-fold, 989 nM
- O=C(/C=C/c1ccc(Cl)c(Cl)c1)NCCCCCN1CCC(NC(=O)Nc2ccc(Cl)c(Cl)c2)CC1 — within 1.5-fold, 892 nM
- CCC[C@@H]([C@@H](CC1CCCCC1)C(=O)N[C@H](C(=O)Nc1nccs1)C(C)(C)SCCOCCOCC)N(O)C=O — 12-fold lower, 82.2 nM
- O=C(CCc1cccnc1)Nc1cccc(-c2ccc(-c3nc4cc(C(F)(F)F)ccc4[nH]3)cc2)c1 — within 1.5-fold, 867 nM
- CCCc1cccc(C)c1OCCCON1C(=N)N=C(N)NC1(C)C — 300-fold lower, 3.2 nM
- Cc1cc(C(F)(F)F)n2nc(C3CCN(Cc4cc(C)c(O)c(C)c4)C3)cc2n1 (stereo not drawn) — within 1.5-fold, 758 nM
- CC(COc1ccc2c(c1)OC(C)(C)CC2c1ccccc1)NCC(O)c1cccc(Cl)c1 (stereo not drawn) — within 1.5-fold, 752 nM
- Fc1ccc2[nH]c(-c3ccc(-c4ccc(CNCc5cnn(-c6ccccc6)n5)cc4)cc3)nc2c1 — 1.8-fold lower, 540 nM
- CCC(=C(CC)c1ccc(O)c(CNC2CCCCC2)c1)c1ccc(O)c(CNC2CCCCC2)c1 — 6.4-fold lower, 152 nM
- OC(c1cccc(OCc2ccccc2)c1)C1CN(CCc2ccccc2)CCC1(O)c1ccccc1 (stereo not drawn) — 4.5-fold lower, 218 nM
- CN(C)CCNC(=O)c1ccc2c(c1)n(C1CCN(S(=O)(=O)c3ccc(-c4ccccc4)cc3)CC1)c(=O)n2CC1CCCCC1 — 1.6-fold lower, 624 nM
- O=C(NC1CCC(CN2CCC(c3c[nH]c4ccccc34)CC2)CC1)c1ccc(-c2ccccc2[N+](=O)[O-])o1 (stereo not drawn) — within 1.5-fold, 772 nM
- COc1ccccc1NC(=O)Nc1cccc(-c2ccc(-c3nc4cc(C(F)(F)F)ccc4[nH]3)cc2)c1 — 3.2-fold lower, 306 nM
- COc1ccc2c(c1)[nH]c1c(C=Cc3ccccc3)nccc12 — 2.6-fold lower, 379 nM
- O=C(Nc1ccc(Cl)cc1)Nc1nc2cc([N+](=O)[O-])ccc2[nH]1 — within 1.5-fold, 801 nM
- CCC1N=C(N)N=C(N)N1OCc1cccc2ccccc12 (stereo not drawn) — 300-fold lower, 3.2 nM
- Cc1ccc(NC(=O)c2ccc(CN3CCCN(Cc4cccc(O)c4)CC3)cc2)cc1 — within 1.5-fold, 743 nM
- CC(CCc1ccccc1)NCC(O)c1ccc2c(c1)S(=O)(=O)c1ccccc1N2 (stereo not drawn) — within 1.5-fold, 1220 nM
- COc1cccc(OC2CCN(C(=O)c3ccc(-c4ccc(N5CCCC5=O)cc4C)cc3)CC2)c1 — within 1.5-fold, 1010 nM
- COc1ccc2ncc(F)c([C@@H](O)CN3CCC(NCc4cc5c(cn4)OCS5)CC3)c2c1 — 6.9-fold lower, 141 nM
- COc1ccc(-c2cn3c(C(=O)Nc4ccccc4Cl)c(-c4ccccc4)c4c3n2CCCC4)cc1 — within 1.5-fold, 792 nM
- COc1ccc2[nH]c(C)cc(=NN=Cc3ccc(Cl)cc3)c2c1 — 4.3-fold lower, 228 nM
- COc1ccccc1N1CCN(C(C(=O)NCc2cccc(F)c2)c2ccc(C)cc2)CC1 (stereo not drawn) — within 1.5-fold, 892 nM
- CN(c1ccc(NC(=O)CCOc2ccccc2)cc1)C1CCN(Cc2cccc(O)c2)CC1 — within 1.5-fold, 1320 nM
- c1ccc(COc2ccc(COc3ccc(Cn4ccnc4)cc3)cc2)cc1 — within 1.5-fold, 947 nM
- Cc1cccc2nc(-c3ccc(-c4cccc(CN5CCC(C(N)=O)CC5)c4)cc3)[nH]c12 — 1.8-fold higher, 1770 nM
- Cc1ccc(NC(=O)c2ccc3ncccc3c2)cc1OC1CCN(Cc2ccco2)C1 (stereo not drawn) — within 1.5-fold, 1250 nM
- O=C(CCCCCNC(=O)c1ccc(O)c(-c2ccc(Cl)c(Cl)c2)c1)NC1CCCc2ccccc21 (stereo not drawn) — within 1.5-fold, 759 nM
- O=C(NC1CCCCC1)N(Cc1cccc(-c2ccc(CNCc3ccc4c(c3)OCO4)cc2)c1)C1CCN(Cc2ccccc2)CC1 — within 1.5-fold, 788 nM
- O=C(Nc1ccc(-c2cccc(-c3nc4cc(F)ccc4[nH]3)c2)cc1)Nc1ccc(F)c(F)c1F — within 1.5-fold, 739 nM
- COc1ccc2nc(N=C3NC4(c5ccccc5)NC(=Nc5nc6ccc(OC)cc6[nH]5)NC4(c4ccccc4)N3)[nH]c2c1 (stereo not drawn) — 4.8-fold lower, 204 nM
- CS(=O)(=O)c1ccc(CCNCc2ccc(-c3ccc(CN(C(=O)C4CCCC4)C4CCN(Cc5ccccc5)CC4)cc3)nc2)cc1 — within 1.5-fold, 832 nM
- COc1ccc2nccc([C@@H](O)CN3CCC(CO)(NCc4cc5ccccc5o4)CC3)c2c1 — within 1.5-fold, 1370 nM
- COc1cccc(C(=O)Nc2ccc(-c3nc4ccccc4[nH]3)cc2)c1 — within 1.5-fold, 802 nM
- COc1cc(F)c2ncc(Cl)c([C@H](O)CN3CCC(NCc4ccc5c(n4)NC(=O)CO5)CC3)c2c1 — 6-fold lower, 161 nM
- Cc1cc(NC(=O)c2cccs2)ccc1OC1CCN(Cc2ccccc2)C1 (stereo not drawn) — within 1.5-fold, 895 nM
- O=C(NC1CCN(Cc2ccc(O)cc2)CC1)c1ccc(Cl)c(Cl)c1 — within 1.5-fold, 1180 nM
- CC(=O)Nc1ccc(OCCCCN(Cc2ccccc2C(F)(F)F)c2ccc(C#N)c(C(F)(F)F)c2)cc1 — within 1.5-fold, 1390 nM
- CCN(CCCN1CCCCC1)c1cc(C)nc(Nc2ccc(Cl)cc2)n1 — 2.5-fold lower, 385 nM
- O=C(c1csc(-c2cccnc2)n1)N1CCc2cc3nccc(N4CCN5CCC[C@H]5C4)c3cc21 — within 1.5-fold, 695 nM
- COc1cccc(CN2CCC(CCOC(c3ccccc3)c3ccccc3)CC2)c1O — within 1.5-fold, 730 nM
- O=C(NCc1cccc(F)c1)Nc1ccc(-c2cccc(-c3nc4ccccc4[nH]3)c2)cc1 — within 1.5-fold, 894 nM
- Nc1ncc(-c2cccc(F)c2)cc1-c1nc2cc(F)ccc2[nH]1 — 5.6-fold lower, 175 nM
- OC(CN1c2ccccc2Sc2ccccc21)CN(C1CCCCC1)C1CCCCC1 (stereo not drawn) — within 1.5-fold, 651 nM
- O=C(Nc1cccc(-c2ccc(-c3nc4cc(C(F)(F)F)ccc4[nH]3)cc2)c1)c1cccnc1 — 1.7-fold lower, 572 nM
- CC(=NNC(=N)N)c1ccc2c(ccc3ccccc32)c1 — within 1.5-fold, 833 nM
- O=C(Nc1cccc(-c2ccc(-c3nc4cc(F)ccc4[nH]3)cc2)c1)Nc1ccc(Cl)c(Cl)c1 — 7-fold lower, 139 nM
- COc1ccc(F)cc1-c1cccc(CNC2CCN(CC3Cn4c(=O)ccc5ccc(F)c3c54)CC2)c1 (stereo not drawn) — within 1.5-fold, 830 nM
- CC(=O)N(C)C1CCN(Cc2ccc(-c3ccc(-c4nc5cc(F)ccc5[nH]4)s3)cc2)C1 (stereo not drawn) — within 1.5-fold, 971 nM
- O=C(/C=C/c1ccc(Cl)c(Cl)c1)NCCCCCN1CCCC(CCCNC(=O)Nc2ccc(C(F)(F)F)cc2)C1 (stereo not drawn) — 1.9-fold lower, 525 nM
- Cc1[nH]c(C)c(-c2ccc(C#Cc3ccc(F)cc3F)cc2)c(=O)c1Br — 32-fold lower, 30.1 nM
- CC1(C)Cc2c([nH]c3ccccc23)C(CCCCCCCCC2=NC(C)(C)Cc3c2[nH]c2ccccc32)=N1 — within 1.5-fold, 933 nM
- Oc1cccc(/C=N/Nc2ccnc3cc(Cl)ccc23)c1 — within 1.5-fold, 728 nM
- COc1ccc2ncc(C#N)c(CCN3C[C@H](CNCc4ccccc4)[C@H](O)C3)c2n1 — within 1.5-fold, 1060 nM
